# According to patent publication US20190292179A1 (BRISTOL-MYERS SQUIBB COMPANY, priority 2016, published 2019):
# Target: T1, HIS-TGFβR1 T204D (Homo sapiens, UniProt P36897, T204D)
# T1 sequence (P36897 34-503 T204D): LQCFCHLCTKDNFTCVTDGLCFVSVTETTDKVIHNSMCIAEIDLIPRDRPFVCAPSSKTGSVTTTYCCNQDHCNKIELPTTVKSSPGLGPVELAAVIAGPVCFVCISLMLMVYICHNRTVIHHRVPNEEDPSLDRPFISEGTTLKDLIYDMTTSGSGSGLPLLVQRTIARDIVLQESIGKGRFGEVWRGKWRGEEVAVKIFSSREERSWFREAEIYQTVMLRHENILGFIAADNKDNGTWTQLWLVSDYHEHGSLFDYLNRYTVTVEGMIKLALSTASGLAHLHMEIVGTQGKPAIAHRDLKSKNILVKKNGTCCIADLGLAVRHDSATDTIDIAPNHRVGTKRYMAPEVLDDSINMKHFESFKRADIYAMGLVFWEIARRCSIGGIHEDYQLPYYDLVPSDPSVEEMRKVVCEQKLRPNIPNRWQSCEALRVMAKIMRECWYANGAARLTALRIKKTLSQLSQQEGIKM
# Test: HTRF probe-displacement assay with HIS-TGFβR1 T204D
# Format: binding
# Settings: 1 nM HIS-TGFβR1 T204D, labeled probe at Kd, 1 hour at room temperature
# Description: (§1) The reaction is incubated for 1 hour at room temperature and the HTRF signal was measured on an Envision plate reader (Ex: 340 nm; Em: 520 nm/495 nm). Inhibition data were calculated by comparison to no enzyme control reactions for 100% inhibition and vehicle-only reactions for 0% inhibition. The final concentration of reagents in the assay are 1 nM HIS-TGFβR1 T204D or HIS-TGFβR2 WT, 0.2 nM anti-HIS detection antibody, labeled small molecule probe (at Kd) and 0.5% DMSO. Dose response curves were generated to determine the concentration required inhibiting 50% of kinase activity (IC50). Compounds were dissolved at 10 mM in dimethylsulfoxide (DMSO) and evaluated at eleven concentrations. IC50 values were derived by non-linear regression analysis.
row,IC50,Compound
1,0.115 µM,"Cc1cccc(-c2c(-c3ccc4nccn4c3)c(C(C)C)nn2C)n1 [Example 120, 6-(3-isopropyl-1-methyl-5-(6-methylpyridin-2-yl)-1H-pyrazol-4-yl)imidazo[1,2-a]pyridine]"
2,0.281 µM,"CCOC(=O)c1[nH]nc(-c2ccc(F)cc2)c1-c1ccc2ncc(C#N)n2c1 [Example 128, ethyl 4-(3-cyanoimidazo[1,2-a]pyridin-6-yl)-3-(4-fluorophenyl)-1H-pyrazole-5-carboxylate]"
3,1.76 µM,N#Cc1cnc2ccc(-c3c(-c4ccc(F)cc4)n[nH]c3C(=O)O)cn12 [Example 129]
4,0.145 µM,"N#Cc1cnc2ccc(-c3c(-c4ccc(F)cc4)n[nH]c3C(N)=O)cn12 [Example 130, 4-(3-cyanoimidazo[1,2-a]pyridin-6-yl)-3-(4-fluorophenyl)-1H-pyrazole-5-carboxamide]"
5,1.41 µM,"N#Cc1cnc2ccc(-c3c(-c4ccc(F)cc4)n[nH]c3C(=O)NC3CC3)cn12 [Example 131, 4-(3-cyanoimidazo[1,2-a]pyridin-6-yl)-N-cyclopropyl-3-(4-fluorophenyl)-1H-pyrazole-5-carboxamide]"
6,0.758 µM,"CCOC(=O)c1[nH]nc(-c2ccc(F)cc2)c1-c1ccc2nccn2c1 [Example 132, ethyl 3-(4-fluorophenyl)-4-(imidazo[1,2-a]pyridin-6-yl)-1H-pyrazole-5-carboxylate]"
7,25.3 µM,"O=C(O)c1[nH]nc(-c2ccc(F)cc2)c1-c1ccc2nccn2c1 [Example 133, 3-(4-fluorophenyl)-4-(imidazo[1,2-a]pyridin-6-yl)-1H-pyrazole-5-carboxylic acid]"
8,0.023 µM,"C=C(C)c1[nH]nc(-c2ccc(F)cc2)c1-c1ccc2nccn2c1 [Example 136, 6-(3-(4-fluorophenyl)-5-(prop-1-en-2-yl)-1H-pyrazol-4-yl)imidazo[1,2-a]pyridine]"
9,0.153 µM,"CC(C)(O)c1[nH]nc(-c2ccc(F)cc2)c1-c1ccc2nccn2c1 [Example 137, 2-(3-(4-fluorophenyl)-4-(imidazo[1,2-a]pyridin-6-yl)-1H-pyrazol-5-yl)propan-2-ol]"
10,0.002 µM,"CCOC(=O)c1[nH]nc(-c2cccc(C)n2)c1-c1ccc2ncc(C#N)n2c1 [Example 138, ethyl 4-(3-cyanoimidazo[1,2-a]pyridin-6-yl)-3-(6-methylpyridin-2-yl)-1H-pyrazole-5-carboxylate]"
11,0.002 µM,"CCOC(=O)c1[nH]nc(-c2cccc(C)n2)c1-c1ccc2nccn2c1 [Example 139, ethyl 4-(imidazo[1,2-a]pyridin-6-yl)-3-(6-methylpyridin-2-yl)-1H-pyrazole-5-carboxylate]"
12,0.001 µM,"Cc1cccc(-c2n[nH]c(C(F)F)c2-c2ccc3nccn3c2)n1 [Example 140, 6-(5-(difluoromethyl)-3-(6-methylpyridin-2-yl)-1H-pyrazol-4-yl)imidazo[1,2-a]pyridine]"
13,0.274 µM,"CC(=O)Nc1[nH]nc(-c2ccc(F)cc2)c1-c1ccc2ncc(C#N)n2c1 [Example 142, N-(4-(3-cyanoimidazo[1,2-a]pyridin-6-yl)-3-(4-fluorophenyl)-1H-pyrazol-5-yl)acetamide]"
14,0.027 µM,"CC(=O)Nc1[nH]nc(-c2ccc(F)cc2)c1-c1ccc2ncc(C(N)=O)n2c1 [Example 143, 6-(5-acetamido-3-(4-fluorophenyl)-1H-pyrazol-4-yl)imidazo[1,2-a]pyridine-3-carboxamide]"

# The next lines start with the molecule.
row,Compound,IC50
1,"NC(=O)c1cnc2ccc(-c3c[nH]nc3-c3cccc(C(F)(F)F)n3)cn12 [Example 2, 6-(3-(6-(trifluoromethyl)pyridin-2-yl)-1H-pyrazol-4-yl)imidazo[1,2-a]pyridine-3-carboxamide]",0.001 µM
2,"N#Cc1cnc2ccc(-c3c[nH]nc3-c3cccc(C(F)F)n3)cn12 [Example 4, 6-(3-(6-(difluoromethyl)pyridin-2-yl)-1H-pyrazol-4-yl)imidazo[1,2-a]pyridine-3-carbonitrile]",0.001 µM
3,"Cn1cc(-c2ccc3ncc(C(N)=O)n3c2)c(-c2cccc(C(F)(F)F)n2)n1 [Example 10, 6-(1-methyl-3-(6-(trifluoromethyl)pyridin-2-yl)-1H-pyrazol-4-yl)imidazo[1,2-a]pyridine-3-carboxamide]",0.001 µM
4,"Cc1nc(-c2nn(C)cc2-c2ccc3ncc(C#N)n3c2)ccc1F [Example 11, 6-(3-(5-fluoro-6-methylpyridin-2-yl)-1-methyl-1H-pyrazol-4-yl)imidazo[1,2-a]pyridine-3-carbonitrile]",0.001 µM
5,"N#Cc1cnc2ccc(-c3c[nH]nc3-c3ccc(F)cc3)nn12 [Example 13, 6-(3-(4-fluorophenyl)-1H-pyrazol-4-yl)imidazo [1,2-b]pyridazine-3-carbonitrile]",0.007 µM
6,"NC(=O)c1cnc2ccc(-c3c[nH]nc3-c3ccc(F)cc3)nn12 [Example 14, 6-(3-(4-fluorophenyl)-1H-pyrazol-4-yl)imidazo[1,2-b]pyridazine-3-carboxamide]",0.004 µM
7,"Fc1ccc(-c2n[nH]c(C(F)(F)F)c2-c2ccc3nccn3c2)cc1 [Example 107, 6-(3-(4-fluorophenyl)-5-(trifluoromethyl)-1H-pyrazol-4-yl)imidazo[1,2-a]pyridine]",0.147 µM
8,"Cn1nc(-c2ccc(F)cc2)c(-c2ccc3ncc(C(N)=O)n3c2)c1C(F)(F)F [Example 108, 6-(3-(4-fluorophenyl)-1-methyl-5-(trifluoromethyl)-1H-pyrazol-4-yl)imidazo[1,2-a]pyridine-3-carboxamide]",0.022 µM
9,"Cn1nc(C(F)(F)F)c(-c2ccc3ncc(C(N)=O)n3c2)c1-c1ccc(F)cc1 [Example 109, 6-(5-(4-fluorophenyl)-1-methyl-3-(trifluoromethyl)-1H-pyrazol-4-yl)imidazo[1,2-a]pyridine-3-carboxamide]",1.13 µM
10,"N#Cc1cnc2ccc(-c3c(-c4ccc(F)cc4)nn4c3COCC4)cn12 [Example 110, 6-(2-(4-fluorophenyl)-6,7-dihydro-4H-pyrazolo[5,1-c][1,4]oxazin-3-yl)imidazo[1,2-a]pyridine-3-carbonitrile]",0.173 µM
11,"CC(C)(O)c1cnc2ccc(-c3c(-c4ccc(F)cc4)nn4c3COCC4)cn12 [Example 113, 2-(6-(2-(4-fluorophenyl)-6,7-dihydro-4H-pyrazolo[5,1-c][1,4]oxazin-3-yl)imidazo[1,2-a]pyridin-3-yl)propan-2-ol]",3.81 µM
12,"Cc1cccc(-c2c(-c3ccc4ncc(C#N)n4c3)c(C(C)C)nn2C)n1 [Example 117, 6-(3-isopropyl-1-methyl-5-(6-methylpyridin-2-yl)-1H-pyrazol-4-yl)imidazo[1,2-a]pyridine-3-carbonitrile]",0.009 µM

# Target: HIS-TGFβR2 WT (Homo sapiens, UniProt P37173)
# Sequence (P37173 23-567): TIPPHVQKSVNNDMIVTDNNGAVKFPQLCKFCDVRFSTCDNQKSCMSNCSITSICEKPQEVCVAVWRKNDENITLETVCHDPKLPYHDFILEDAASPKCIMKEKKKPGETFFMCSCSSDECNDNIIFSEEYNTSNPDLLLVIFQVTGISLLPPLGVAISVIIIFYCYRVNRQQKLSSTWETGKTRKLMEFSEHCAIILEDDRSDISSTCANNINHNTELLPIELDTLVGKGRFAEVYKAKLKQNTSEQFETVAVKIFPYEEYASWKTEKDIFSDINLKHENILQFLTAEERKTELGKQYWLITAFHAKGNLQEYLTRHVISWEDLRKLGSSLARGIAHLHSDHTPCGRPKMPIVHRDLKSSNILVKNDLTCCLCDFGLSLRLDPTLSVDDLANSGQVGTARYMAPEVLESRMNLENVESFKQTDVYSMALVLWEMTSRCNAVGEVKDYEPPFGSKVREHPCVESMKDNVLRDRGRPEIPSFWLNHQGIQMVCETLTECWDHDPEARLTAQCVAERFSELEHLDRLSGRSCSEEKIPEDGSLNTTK
# Test: HTRF probe-displacement assay with HIS-TGFβR2 WT
# Format: binding
# Settings: 1 nM HIS-TGFβR2 WT, labeled probe at Kd, 1 hour at room temperature
# Description: as §1
row,IC50,Compound
1,1.83 µM,"NC(=O)c1cnc2ccc(-c3c[nH]nc3-c3cccc(C(F)(F)F)n3)cn12 [Example 2, 6-(3-(6-(trifluoromethyl)pyridin-2-yl)-1H-pyrazol-4-yl)imidazo[1,2-a]pyridine-3-carboxamide]"
2,1.11 µM,"N#Cc1cnc2ccc(-c3c[nH]nc3-c3cccc(C(F)F)n3)cn12 [Example 4, 6-(3-(6-(difluoromethyl)pyridin-2-yl)-1H-pyrazol-4-yl)imidazo[1,2-a]pyridine-3-carbonitrile]"
3,0.193 µM,"NC(=O)c1cnc2ccc(-c3c[nH]nc3-c3cccc(C(F)F)n3)cn12 [Example 5, 6-(3-(6-(difluoromethyl)pyridin-2-yl)-1H-pyrazol-4-yl)imidazo[1,2-a]pyridine-3-carboxamide]"
4,0.259 µM,"N#Cc1cnc2ccc(-c3c[nH]nc3-c3cccc(F)n3)cn12 [Example 6, 6-(3-(6-fluoropyridin-2-yl)-1H-pyrazol-4-yl)imidazo[1,2-a]pyridine-3-carbonitrile]"
5,8.87 µM,"Cn1cc(-c2ccc3ncc(C(N)=O)n3c2)c(-c2cccc(C(F)(F)F)n2)n1 [Example 10, 6-(1-methyl-3-(6-(trifluoromethyl)pyridin-2-yl)-1H-pyrazol-4-yl)imidazo[1,2-a]pyridine-3-carboxamide]"
6,5.42 µM,"Cc1nc(-c2nn(C)cc2-c2ccc3ncc(C#N)n3c2)ccc1F [Example 11, 6-(3-(5-fluoro-6-methylpyridin-2-yl)-1-methyl-1H-pyrazol-4-yl)imidazo[1,2-a]pyridine-3-carbonitrile]"
7,0.396 µM,"Cc1nc(-c2nn(C)cc2-c2ccc3ncc(C(N)=O)n3c2)ccc1F [Example 12, 6-(3-(5-fluoro-6-methylpyridin-2-yl)-1-methyl-1H-pyrazol-4-yl)imidazo[1,2-a]pyridine-3-carboxamide]"
8,0.101 µM,"N#Cc1cnc2ccc(-c3c[nH]nc3-c3ccc(F)cc3)nn12 [Example 13, 6-(3-(4-fluorophenyl)-1H-pyrazol-4-yl)imidazo [1,2-b]pyridazine-3-carbonitrile]"
9,0.885 µM,"NC(=O)c1cnc2ccc(-c3c[nH]nc3-c3ccc(F)cc3)nn12 [Example 14, 6-(3-(4-fluorophenyl)-1H-pyrazol-4-yl)imidazo[1,2-b]pyridazine-3-carboxamide]"
10,0.752 µM,"Cc1cccc(-c2n[nH]cc2-c2ccc3[nH]ncc3c2)n1 [Example 18, 5-(3-(6-methylpyridin-2-yl)-1H-pyrazol-4-yl)-1H-indazole]"
11,0.277 µM,"Cc1cccc(-c2n[nH]cc2-c2ccc3nccn3n2)n1 [Example 19, 6-(3-(6-methylpyridin-2-yl)-1H-pyrazol-4-yl)imidazo[1,2-b]pyridazine]"
12,0.205 µM,"Cc1cccc(-c2n[nH]cc2-c2ccc3ncc(C(N)=O)n3n2)n1 [Example 21, 6-(3-(6-methylpyridin-2-yl)-1H-pyrazol-4-yl)imidazo[1,2-b]pyridazine-3-carboxamide]"
13,0.368 µM,"Cc1cc(-c2n[nH]cc2-c2ccc3ncc(C(N)=O)n3c2)ccc1F [Example 50, 6-(3-(4-fluoro-3-methylphenyl)-1H-pyrazol-4-yl)imidazo[1,2-a]pyridine-3-carboxamide]"
14,0.518 µM,"NC(=O)c1cnc2ccc(-c3cn(CC(F)F)nc3-c3ccc(F)c(Cl)c3)cn12 [Example 62, 6-(3-(3-chloro-4-fluorophenyl)-1-(2,2-difluoroethyl)-1H-pyrazol-4-yl)imidazo[1,2-a]pyridine-3-carboxamide]"
15,0.143 µM,"NC(=O)c1cnc2ccc(-c3c(-c4ccc(F)cc4)n[nH]c3C3CC3)cn12 [Example 85, 6-(5-cyclopropyl-3-(4-fluorophenyl)-1H-pyrazol-4-yl)imidazo[1,2-a]pyridine-3-carboxamide]"
